Reference: patent publication US8426174B2, “Method for the production of 2-butanol” (Butamax(TM) Advanced Biofuels LLC, priority 2007, dated 2013)

How the values were obtained:
[1] = test system: Lactobacillus plantarum PN0512; test: Growth of L. plantarum PN0512 in the presence of butanols at different temperatures; format: cell-based; design: key to Growth at 37° C. / Growth at 30° C. / Growth at 25° C.: +: growth observed as an increase in OD600.; −: no growth observed, i.e. no change in OD600
Method: Tolerance levels of bacterial strain Lactobacillus plantarum PN0512 (ATCC # PTA-7727) were determined at 25° C., 30° C. and 37° C. as follows. The strain was cultured in S30L medium (i.e., 10 mM ammonium sulfate, 5 mM potassium phosphate buffer, pH 7.0, 50 mM MOPS, pH 7.0, 2 mM MgCl2, 0.7 mM CaCl2, 50 μM MnCl2, 1 μM FeCl3, 1 μM ZnCl2, 1.72 μM CuCl2, 2.53 μM CoCl2, 2.42 μM Na2MoO4, 2 μM thiamine hydrochloride, 10 mM glucose, and 0.2% yeast extract). An overnight culture in the absence of any test compound was started in 15 mL of the S30L medium in a 150 mL flask, with incubation at 37° C. in a shaking water bath. The next morning, the overnight culture was diluted into three 500 mL flasks containing 150 mL of fresh medium to an initial OD600 of about 0.08. Each flask was incubated in a shaking water bath, one each at 25° C., 30° C. and 37° C. Each large culture was allowed to acclimate at the test temperature for at least 0.5 h. […] Growth was followed by measuring OD600 for six hours after addition of the compounds.

[2] = test system: Klebsiella pneumoniae glycerol dehydratase; test: Glycerol dehydratase butanediol dehydratase activity, crude cell free extract; format: biochemical; details: 10 mM meso-2,3-butanediol, 12 μM coenzyme B12, pH 8.2, 37° C.
From the text: Glycerol dehydratase (E.C. 4.2.1.30) and diol dehydratase (E.C. 4.2.1.28), while structurally related, are often distinguished in the art based on various differences that include substrate specificity. […] The recombinant E. coli strain KLP23/pSYCO12, comprising Klebsiella pneumoniae genes encoding the multiple subunits of glycerol dehydratase (alpha: SEQ ID NO:145 (coding region) and 146 (protein); beta: SEQ ID NO: 147 (coding region) and 148 (protein); and gamma: SEQ ID NO: 149 (coding region) and 150 (protein)) and Klebsiella pneumoniae genes encoding the multiple subunits of glycerol dehydratase reactivase (large subunit, SEQ ID NO: 151 (coding region) and 152 (protein); and small subunit, SEQ ID NO: 153 (coding region) and 154 (protein)), is described in Emptage et al. U.S. Pat. No. 6,514,733 and in WO 2003089621, which are herein incorporated by reference. A crude, cell free extract of KLP23/pSYCO12 was prepared by methods known to one skilled in the art. […] The formation of 2-butanone was monitored by HPLC (Shodex SH-1011 column and SH-G guard column with refractive index detection; 0.01 M H2SO4 as the mobile phase at a flow rate of 0.5 mL/min and a column temperature of 50° C.; 2-butanone retention time=40.2 min). The rate of 2-butanone formation by the glycerol dehydratase preparation was determined to be 0.4 nmol/min/mg of crude protein.

CCC(C)O (stereo not drawn) [2-butanol]
Growth at 37° C. ([1]; 1.8 % w/v 2-butanol): +
Growth at 37° C. ([1]; 2.1 % w/v 2-butanol): +
Growth at 25° C. ([1]; 2.9 % w/v 2-butanol): +
Growth at 30° C. ([1]; 2.9 % w/v 2-butanol): +
Growth at 37° C. ([1]; 2.9 % w/v 2-butanol): +
Growth at 37° C. ([1]; 3.1 % w/v 2-butanol): +
Growth at 37° C. ([1]; 3.6 % w/v 2-butanol): +
Growth at 25° C. ([1]; 3.8 % w/v 2-butanol): +
Growth at 30° C. ([1]; 3.8 % w/v 2-butanol): +
Growth at 37° C. ([1]; 3.8 % w/v 2-butanol): +
Growth at 30° C. ([1]; 4.0 % w/v 2-butanol): +
Growth at 25° C. ([1]; 4.3 % w/v 2-butanol): +
Growth at 30° C. ([1]; 4.3 % w/v 2-butanol): +
Growth at 37° C. ([1]; 4.3 % w/v 2-butanol): +
Growth at 25° C. ([1]; 4.7 % w/v 2-butanol): +
Growth at 30° C. ([1]; 4.7 % w/v 2-butanol): +
Growth at 37° C. ([1]; 4.7 % w/v 2-butanol): −
Growth at 25° C. ([1]; 4.9 % w/v 2-butanol): +
Growth at 30° C. ([1]; 4.9 % w/v 2-butanol): −
Growth at 25° C. ([1]; 5.2 % w/v 2-butanol): +
Growth at 37° C. ([1]; 5.2 % w/v 2-butanol): −
Growth at 25° C. ([1]; 5.6 % w/v 2-butanol): −
Growth at 37° C. ([1]; 5.6 % w/v 2-butanol): −
Growth at 37° C. ([1]; 6.0 % w/v 2-butanol): −
Growth at 37° C. ([1]; 6.4 % w/v 2-butanol): −
Growth at 37° C. ([1]; 7.3 % w/v 2-butanol): −
concentration in which growth was observed ([1]; 25° C.): 5.2%
concentration in which growth was not observed ([1]; 30° C.): 4.9%
concentration in which growth was observed ([1]; 30° C.): 4.7%
concentration in which growth was not observed ([1]; 37° C.): 4.5%
concentration in which growth was observed ([1]; 37° C.): 4.3%
Growth at 30° C. ([1]; […] w/v 2-butanol): +

CC(O)C(C)O (stereo not drawn) [meso-2,3-butanediol]
rate of 2-butanone formation [2]: 0.4 nmol/min/mg of crude protein
